The source made the active and inactive calls. The calls are words filed in the database; no cut-off is given here.
Legend:
[1] = system: Rattus norvegicus; test: Antiinflammatory activity in Wistar rat assessed as reduction of carrageenan-induced increase in paw volume at 30 mg/kg, po after 2 hrs; assay type: functional
[2] = system: Rattus norvegicus; test: Antiinflammatory activity in Wistar rat assessed as reduction of carrageenan-induced increase in paw volume at 30 mg/kg, po after 3 hrs; assay type: functional
[3] = system: Rattus norvegicus; test: Antiinflammatory activity in Wistar rat assessed as reduction of carrageenan-induced increase in paw volume at 30 mg/kg, po after 4 hrs; assay type: functional
[4] = system: Rattus norvegicus; test: Antiinflammatory activity in Wistar rat assessed as reduction of carrageenan-induced increase in paw volume at 30 mg/kg, po after 24 hrs; assay type: functional
[5] = system: Rattus norvegicus; test: Antiinflammatory activity in Wistar rat assessed as reduction of carrageenan-induced increase in paw volume at 1000 mg/kg, po; assay type: functional, organism-based; design: dose 1000 mg/kg
[6] = system: Rattus norvegicus; test: Toxicity in Wistar rat up to 1000 mg/kg, po; assay type: organism-based; design: dose 1000 mg/kg, route oral; settings: in vivo
[7] = system: Mus musculus; test: Toxicity in Swiss albino mouse up to 1000 mg/kg, po; assay type: organism-based; design: dose 1000 mg/kg, route oral; settings: in vivo
[8] = system: Mus musculus; test: Analgesic activity against acetic acid-induced writhing in Swiss albino mouse at 30 mg/kg, po; assay type: functional, organism-based; design: dose 30 mg/kg

SMILES	Activity [1] [mL]	Activity [2] [mL]	Activity [3] [mL]	Activity [4] [mL]	Activity [5]	Activity [6]	Activity [7]	Activity [8]
Oc1ccc(Cl)cc1C1=NNC(c2ccc(N3CCOCC3)cc2)C1 (stereo unspecified)	1.52	1.6	1.61	1.92	Active	Non-toxic	Non-toxic	–
Oc1ccc(Br)cc1C1=NNC(c2ccc(N3CCOCC3)cc2)C1 (stereo unspecified)	0.86	0.52	0.64	0.98	Active	Non-toxic	Non-toxic	Active
O=C([O-])Cc1ccccc1Nc1c(Cl)cccc1Cl.[Na+] [DICLOFENAC SODIUM]	0.18	0.18	0.18	0.03	–	–	–	–
Oc1ccccc1C1=NNC(c2ccc(N3CCOCC3)cc2)C1 (stereo unspecified)	0.73	0.59	0.69	0.68	Active	Non-toxic	Non-toxic	–
Oc1ccc(Cl)cc1C1=NN(C(=S)Nc2ccccc2)C(c2ccc(N3CCOCC3)cc2)C1 (stereo unspecified)	0.64	0.72	0.72	0.86	Active	Non-toxic	Non-toxic	Active
Cc1ccc(O)c(C2=NN(C(=S)Nc3ccccc3)C(c3ccc(N4CCOCC4)cc3)C2)c1 (stereo unspecified)	1.52	1.6	1.43	1.92	Active	Non-toxic	Non-toxic	–
Cc1cc(C)c(O)c(C2=NNC(c3ccc(N4CCOCC4)cc3)C2)c1 (stereo unspecified)	1.38	1.57	1.53	1.92	Active	Non-toxic	Non-toxic	–
Cc1cc(O)c(C2=NNC(c3ccc(N4CCOCC4)cc3)C2)cc1Cl (stereo unspecified)	1.56	1.62	1.63	1.93	Active	Non-toxic	Non-toxic	–
Cc1ccc(O)c(C2=NNC(c3ccc(N4CCOCC4)cc3)C2)c1 (stereo unspecified)	0.87	0.85	0.96	0.79	Active	Non-toxic	Non-toxic	Active
Oc1ccccc1C1=NN(C(=S)Nc2ccccc2)C(c2ccc(N3CCOCC3)cc2)C1 (stereo unspecified)	0.82	0.62	0.84	0.94	Active	Non-toxic	Non-toxic	–
Oc1c(Cl)cc(Cl)cc1C1=NNC(c2ccc(N3CCOCC3)cc2)C1 (stereo unspecified)	1.41	1.46	1.75	1.72	Active	Non-toxic	Non-toxic	–
Oc1c(Cl)cc(Cl)cc1C1=NN(C(=S)Nc2ccccc2)C(c2ccc(N3CCOCC3)cc2)C1 (stereo unspecified)	1.49	1.47	1.52	1.92	Active	Non-toxic	Non-toxic	–
Oc1ccc(Br)cc1C1=NN(C(=S)Nc2ccccc2)C(c2ccc(N3CCOCC3)cc2)C1 (stereo unspecified)	0.87	0.69	0.91	0.92	Active	Non-toxic	Non-toxic	Active
Cc1cc(O)c(C2=NN(C(=S)Nc3ccccc3)C(c3ccc(N4CCOCC4)cc3)C2)cc1Cl (stereo unspecified)	1.42	1.53	1.57	1.92	Active	Non-toxic	Non-toxic	–
Cc1cc(C)c(O)c(C2=NN(C(=S)Nc3ccccc3)C(c3ccc(N4CCOCC4)cc3)C2)c1 (stereo unspecified)	1.41	1.81	1.63	1.73	Active	Non-toxic	Non-toxic	–
